≈ marks a conversion by molar mass, not a printed value. Where two headings read alike, the source gives them in different places.
Tests used:
[1] = ΔH, ΔS and stability constant (Kc) of drug-HPβCD MS 0.6 complexes, effect of PVP (Example 17); type: physicochemical; conditions: for ΔH / ΔS: HPβCD MS 0.6 complex
Procedure: (§1) The effect of polyvinylpyrrolidone (PVP) on the enthalpy (ΔH) and the entropy (ΔS) of the stability constant (Kc) of the drug-cyclodextrin complex was determined.
(§2) An excess amount of the drug was added to water containing 0, 0.1, 0.25 or 0.5% (w/v) PVP and various amounts of HPβCD or HPαCD.

physchem [2] = assay: physchem
physchem [3] = assay: physchem; remark: listed apart in the source
physchem [4] = assay: physchem; remark: listed apart in the source
physchem [5] = assay: physchem; remark: listed apart in the source
[6] = Effect of PVP on the solubilization of drugs in aqueous HPβCD solutions (Example 7); conditions: for S4 /S3: with vs without 0.25% PVP
[7] = Solubility of various drugs: effect of CMC in aqueous HPβCD solutions (Example 1); conditions: for S4 /S3: 0.25% CMC + 10% HPβCD vs 10% HPβCD
[8] = Effect of previously prepared solid HPβCD-polymer complexing agent on solubility (Example 13); type: physicochemical
Procedure: The resultant solutions were heated in sealed containers to 120° C. and maintained at that temperature for 30 minutes, then were lyophilized. The solids thus obtained were ground with a mortar and pestle.
The solid cyclodextrin/polymer products were reconstituted with water to afford solutions containing 9.88% (w/v) HPβCD and 0.12% (w/v) PVP, 0.12% (w/v) or CMC 0.12% (w/v) HPMC. The solubilities (S) of three drugs in these solutions and in an aqueous solution containing 10% (w/v) HPβCD without added polymer were then determined as follows:
An excess amount of each drug was added to each of the four cyclodextrin solutions and the solutions were sonicated in an ultrasonic bath for 3 hours, then allowed to equilibrate for 60 hours at room temperature (23° C.). […] However, by separate preparation of the cyclodextrin/polymer complexing agent as illustrated here, one can readily avoid heating drugs which are unstable at elevated temperature.

physchem [9] = conditions: aqueous 5% (w/v) γcd
[10] = 5% γCD
[11] = type: physicochemical
Source text: (2) The apparent stability constants of the drug -cyclodextrin complexes were increased when the polymers were present in the aqueous cyclodextrin complexation media in accord with the present invention. […];

[12] = Dissolution of hydrocortisone from tablets, USP XXII paddle apparatus (Example 10); type: physicochemical; conditions: 3 minutes, 37° C.
Procedure: After equilibration for 3 days at room temperature, the suspensions were filtered through 0.45 μm membrane filters, the tiltrates were lyophilized and the solid which formed was ground with a mortar and pestle. The amount of hydrocortisone incorporated into the HPβCD complex was determined by HPLC.
Individual disks of 200 mg hydrocortisone-HPβCD complex were compressed in a hydraulic press under vacuum and a force of 1×10^4 kg for 1.5 minutes using a 13 mm (diameter) IR potassium bromide pellet punch.
The dissolution studies were carried out using a USP XXII described paddle apparatus for dissolution rate determination. The release rate was determined at 37±1° C. and 100 rpm by adding one tablet to 900 ml of water. Samples were withdrawn at various time intervals, filtered through 0.45 membrane filters and analyzed by HPLC.

[13] = Transdermal delivery of hydrocortisone in vitro, Franz diffusion cell (Example 15a); type: in vitro ADME, hairless mice; conditions: 0.25% (w/v) PVP vs no PVP, at maximum, HPβCD about 12% w/v
Procedure: . Female hairless mice were sacrificed by cervical dislocation and their full-thickness skins were removed and placed in Franz diffusion cells of type FDC 400 15FF, diameter 1.5 cm (Vangard International Inc., USA), containing 12.3 ml receptor phase. The receptor phase consisted of phosphate buffer saline pH 7.4 containing 0.3% (w/v) Brij-58™ and 0.4% (v/v) formaldehyde and was stirred with a magnetic bar. The receptor chamber was kept at 37° C. by circulating water through an external jacket. […]. After equilibration for three days, 2.0 ml of the donor phase was applied to the skin surface (the stratum corneum) and the donor chamber covered with Parafilm™ (a paraffin-coated plastic film). Samples of the receptor phase were removed from the cells, at 12 hour intervals, for three days and replaced with fresh buffer solution. The samples were kept frozen until analyzed by HPLC. Each experiment was repeated at least three times. The results depicted in FIG. 4 are the mean values ± standard error of the mean (SE).

[14] = type: physicochemical; conditions: HPαCD MS 0.6 complex
Procedure: as §1, §2

[15] = for flux (F) through hairless mouse skin: 37° C., mean ± standard deviation, 4 times
physchem [16] = conditions: 10% heβcd
[17] = 10% ethanol in water, organic solvent or mixture
[18] = 10% ethanol, 10% hpbcd, organic solvent or mixture
[19] = ethanol, cmc, hpbcd, organic solvent or mixture

CC(=O)Nc1nnc(S(N)(=O)=O)s1 [Acetazolamide, acetazolamide]
ΔH ([1]; PVP 0.00% w/v): -4.4 kcal/mol | ΔS ([1]; PVP 0.00% w/v): -26.0 J mol^-1 K^-1 | ΔH ([1]; PVP 0.10% w/v): -6.17 kcal/mol | ΔS ([1]; PVP 0.10% w/v): -49.6 J mol^-1 K^-1 | ΔH ([1]; PVP 0.25% w/v): -5.93 kcal/mol | ΔS ([1]; PVP 0.25% w/v): -46.2 J mol^-1 K^-1 | ΔH ([1]; PVP 0.50% w/v): -6.17 kcal/mol | ΔS ([1]; PVP 0.50% w/v): -49.8 J mol^-1 K^-1 | increase in apparent stability constant ([1]; HPβCD complex, 0.25% PVP (w/v)): 13% | solubility at 72 h (physchem [2]; 0.25% pvp, 10% hpβcd): 3660 µg/mL (≈ 16.5 mM) | solubility at 72 h (physchem [2]; 10% hpβcd ms 0.7): 2800 µg/mL (≈ 12.6 mM) | solubility at 72 h (physchem [2]; aqueous 0.25% pvp): 1050 µg/mL (≈ 4.72 mM) | solubility at 72 h (physchem [2]; water): 700 µg/mL (≈ 3.15 mM) | solubility (physchem [3]; 0.10% cmc, 10% hpβcd): 3600 µg/mL (≈ 16.2 mM) | solubility (physchem [3]; 0.25% cmc, 10% hpβcd): 3210 µg/mL (≈ 14.4 mM) | solubility (physchem [3]; 0.50% cmc, 10% hpβcd): 3750 µg/mL (≈ 16.9 mM) | solubility (physchem [3]; aqueous 10% hpβcd ms=0.9): 2520 µg/mL (≈ 11.3 mM) | solubility (physchem [4]; 0.25% cmc in water): 840 µg/mL (≈ 3.78 mM) | solubility (physchem [4]; 0.25% cmc, 10% hpbcd): 3110 µg/mL (≈ 14 mM) | solubility (physchem [4]; [17]): 1110 µg/mL (≈ 4.99 mM) | solubility (physchem [4]; 10% ethanol, 0.25% cmc, organic solvent or mixture): 750 µg/mL (≈ 3.37 mM) | solubility (physchem [4]; [18]): 2190 µg/mL (≈ 9.85 mM) | solubility (physchem [4]; 10% hpbcd in water): 2520 µg/mL (≈ 11.3 mM) | solubility (physchem [4]; [19]): 2500 µg/mL (≈ 11.2 mM) | solubility (physchem [4]; water): 700 µg/mL (≈ 3.15 mM) | solubility (physchem [5]; 0.25% cmc + 10% hpbetacd): 3110 µg/mL | solubility (physchem [5]; aqueous 0.25% cmc): 840 µg/mL (≈ 3.78 mM) | solubility (physchem [5]; aqueous 10% hpbetacd): 2520 µg/mL (≈ 11.3 mM) | solubility (physchem [5]; water): 700 µg/mL (≈ 3.15 mM)

NC(=O)N1c2ccccc2C=Cc2ccccc21 [Carbamazepine, carbamazepine]
solubility at 72 h ([6]; 0.25% pvp, 10% hpβcd): 7500 µg/mL (≈ 31.7 mM) | solubility at 72 h ([6]; 10% hpβcd ms 0.7): 6430 µg/mL (≈ 27.2 mM) | solubility at 72 h ([6]; aqueous 0.25% pvp): 310 µg/mL (≈ 1.31 mM) | solubility at 72 h ([6]; water): 110 µg/mL (≈ 0.466 mM) | S4 /S3 [6]: 1.17 | S4 /S3 [7]: 1.31 | solubility ([7]; 0.25% cmc + 10% hpbetacd): 9200 µg/mL | solubility ([7]; aqueous 0.25% cmc): 200 µg/mL (≈ 0.846 mM) | solubility ([7]; aqueous 10% hpbetacd): 7000 µg/mL (≈ 29.6 mM) | solubility ([7]; water): 110 µg/mL (≈ 0.466 mM) | solubility ([8]; 9.88% hpbetacd + 0.12% cmc, 9.88% (w/v) HPβCD and 0.12% (w/v) CMC, read-out: S3 solubility): 6660 µg/mL | solubility ([8]; 9.88% hpbetacd + 0.12% hpmc, 9.88% (w/v) HPβCD and 0.12% (w/v) HPMC, read-out: S4 solubility): 9530 µg/mL | solubility ([8]; 9.88% hpbetacd + 0.12% pvp, 9.88% (w/v) HPβCD and 0.12% (w/v) PVP, read-out: S2 solubility): 9800 µg/mL | solubility ([8]; 10% hpbetacd, 10% (w/v) HPβCD, read-out: S1 solubility): 7000 µg/mL (≈ 29.6 mM) | solubility (physchem [9]): 490 µg/mL (≈ 2.07 mM) | Scp /Sco ([10]; CMC): 1.33 | Scp /Sco ([10]; HPMC): 2.27 | Scp /Sco ([10]; PVP): 2.18

C[C@@H]1C[C@H]2[C@@H]3CCC4=CC(=O)C=C[C@]4(C)[C@@]3(F)[C@@H](O)C[C@]2(C)[C@@]1(O)C(=O)CO [Dexamethasone, dexamethasone]
solubility at 72 h ([6]; 0.25% pvp, 10% hpβcd): 8000 µg/mL (≈ 20.4 mM) | solubility at 72 h ([6]; 10% hpβcd ms 0.7): 7530 µg/mL (≈ 19.2 mM) | solubility at 72 h ([6]; aqueous 0.25% pvp): 330 µg/mL (≈ 0.841 mM) | solubility at 72 h ([6]; water): 260 µg/mL (≈ 0.662 mM) | S4 /S3 [6]: 1.06 | increase in apparent stability constant [11]: about 26% | S4 /S3 [7]: 1.04 | solubility ([7]; 0.25% cmc + 10% hpbetacd): 8750 µg/mL | solubility ([7]; aqueous 0.25% cmc): 330 µg/mL (≈ 0.841 mM) | solubility ([7]; aqueous 10% hpbetacd): 8430 µg/mL (≈ 21.5 mM) | solubility ([7]; water): 260 µg/mL (≈ 0.662 mM)

C[C@]12CCC(=O)C=C1CC[C@@H]1[C@@H]2[C@@H](O)C[C@@]2(C)[C@H]1CC[C@]2(O)C(=O)CO [Hydrocortisone, hydrocortisone]
hydrocortisone dissolved ([12]; HPβCD complex formed without CMC, average of four): 68.3% | hydrocortisone dissolved ([12]; HPβCD complex with 0.1% (w/v) CMC): 74.2% | hydrocortisone dissolved ([12]; HPβCD complex with 0.25% (w/v) CMC): 81.0% | flux increase with PVP [13]: about 40% | ΔH ([14]; PVP 0.00% w/v): -7.67 kcal/mol | ΔS ([14]; PVP 0.00% w/v): -70.2 J mol^-1 K^-1 | ΔH ([14]; PVP 0.10% w/v): -9.39 kcal/mol | ΔS ([14]; PVP 0.10% w/v): -94.5 J mol^-1 K^-1 | ΔH ([14]; PVP 0.25% w/v): -11.6 kcal/mol | ΔS ([14]; PVP 0.25% w/v): -124.2 J mol^-1 K^-1 | ΔH ([14]; PVP 0.50% w/v): -8.53 kcal/mol | ΔS ([14]; PVP 0.50% w/v): -81.9 J mol^-1 K^-1 | ΔH ([1]; PVP 0.00% w/v): -4.88 kcal/mol | ΔS ([1]; PVP 0.00% w/v): -6.2 J mol^-1 K^-1 | ΔH ([1]; PVP 0.10% w/v): -9.8 kcal/mol | ΔS ([1]; PVP 0.10% w/v): -68.6 J mol^-1 K^-1 | ΔH ([1]; PVP 0.25% w/v): -8.72 kcal/mol | ΔS ([1]; PVP 0.25% w/v): -56.4 J mol^-1 K^-1 | ΔH ([1]; PVP 0.50% w/v): -9.27 kcal/mol | ΔS ([1]; PVP 0.50% w/v): -64.9 J mol^-1 K^-1 | flux (F) through hairless mouse skin ([15]; 6% (w/v) HPβCD MS 0.6 and 0.25% (w/v) PVP): 0.158 ± 0.035 μm/cm^2 /h | transdermal delivery ([15]; PVP-containing sample vs without PVP): over two times faster | flux (F) through hairless mouse skin ([15]; aqueous 8% (w/v) HPβCD MS 0.6): 0.075 ± 0.023 μm/cm^2 /h

Clc1ccc(COC(Cn2ccnc2)c2ccc(Cl)cc2Cl)c(Cl)c1 (centres unmarked) [Miconazole, miconazole]
solubility at 72 h (physchem [16]; 0.25% cmc): 3310 µg/mL (≈ 7.95 mM) | solubility at 72 h (physchem [16]): 2510 µg/mL (≈ 6.03 mM) | solubility at 72 h (physchem [2]; 0.25% pvp, 10% hpβcd): 3400 µg/mL (≈ 8.17 mM) | solubility at 72 h (physchem [2]; 10% hpβcd ms 0.7): 2360 µg/mL (≈ 5.67 mM) | solubility at 72 h (physchem [2]; aqueous 0.25% pvp): 200 µg/mL (≈ 0.481 mM) | solubility at 72 h (physchem [2]; water): 40 µg/mL (≈ 0.0961 mM) | solubility (physchem [4]; 0.25% cmc in water): 60 µg/mL (≈ 0.144 mM) | solubility (physchem [4]; 0.25% cmc, 10% hpbcd): 2500 µg/mL (≈ 6.01 mM) | solubility (physchem [4]; [17]): 310 µg/mL (≈ 0.745 mM) | solubility (physchem [4]; [18]): 2220 µg/mL (≈ 5.33 mM) | solubility (physchem [4]; 10% hpbcd in water): 1980 µg/mL (≈ 4.76 mM) | solubility (physchem [4]; [19]): 12600 µg/mL (≈ 30.2 mM) | solubility (physchem [4]; water): 40 µg/mL (≈ 0.0961 mM) | solubility (physchem [5]; 0.25% cmc + 10% hpbetacd): 2500 µg/mL | solubility (physchem [5]; aqueous 0.25% cmc): 60 µg/mL (≈ 0.144 mM) | solubility (physchem [5]; aqueous 10% hpbetacd): 1980 µg/mL (≈ 4.76 mM) | solubility (physchem [5]; water): 40 µg/mL (≈ 0.0961 mM)

Reference: patent US5472954A, “Cyclodextrin complexation” (priority 1993, dated 1995)
